Assay results from ChEMBL document CHEMBL3832761, “MMV Pathogen Box Bioactivity Data” (2017).
Converted amounts (≈) assume the structure as drawn.

Experiments:
Assay type in all cases: functional
[1] = system: Mycobacterium tuberculosis; assay: AntiMycobacterium tuberculosis activity 1-week GAST/Fe MIC (uM); conditions: 168 h
[2] = system: Mycobacterium tuberculosis; assay: AntiMycobacterium tuberculosis activity day 21 MIC99 in 7H9/2.5mM butyrate/pH6/0.1mM nitrite MIC99 (uM); conditions: 504 h
[3] = system: Mycobacterium tuberculosis; assay: AntiMycobacterium tuberculosis activity 2-week 7H9/DPPC/cholesterol/BSA/Tx MIC (uM); conditions: 336 h
[4] = system: Mycobacterium tuberculosis; assay: AntiMycobacterium tuberculosis activity 2-week 7H9/ADC/Tw MIC (uM); conditions: 336 h
[5] = system: Mycobacterium tuberculosis; assay: AntiMycobacterium tuberculosis activity Replicating form: Average MIC90 (uM)
[6] = system: HepG2; assay: HepG2 CC50 (uM) Cytotoxicity; conditions: Homo sapiens
[7] = system: Mycobacterium tuberculosis; assay: AntiMycobacterium tuberculosis activity 2-week Alamar Blue 7H9/ADC/Tw MIC (uM); conditions: 336 h
[8] = system: Mycobacterium tuberculosis; assay: AntiMycobacterium tuberculosis activity 1-week 7H9/DPPC/cholesterol/BSA/Tx MIC (uM); conditions: 168 h
[9] = system: Mycobacterium tuberculosis; assay: AntiMycobacterium tuberculosis activity 1-week 7H9/cholesterol/BSA/Tx MIC (uM); conditions: 168 h
[10] = system: Mycobacterium tuberculosis; assay: AntiMycobacterium tuberculosis activity 2-week Alamar Blue 7H9/cholesterol/BSA/Tx MIC (uM); conditions: 336 h
[11] = system: Mycobacterium tuberculosis; assay: AntiMycobacterium tuberculosis activity 1-week 7H9/ADC/Tw MIC (uM); conditions: 168 h
[12] = system: Mycobacterium tuberculosis; assay: AntiMycobacterium tuberculosis activity 2-week 7H9/glucose/BSA/Tx MIC (uM); conditions: 336 h
[13] = system: Mycobacterium tuberculosis; assay: (§1) AntiMycobacterium tuberculosis activity day 10 in 7H9/2.5mM butyrate/pH6/0.1mM nitrite MIC90 (uM); conditions: 240 h
[14] = system: Mycobacterium tuberculosis; assay: AntiMycobacterium tuberculosis activity 2-week GAST/Fe MIC (uM); conditions: 336 h
[15] = system: Mycobacterium tuberculosis; assay: AntiMycobacterium tuberculosis activity Non-Replicating form: Average MIC90 (uM)
[16] = system: Mycobacterium tuberculosis; assay: as §1; conditions: 240 h; remark: listed apart in the source
[17] = system: Mycobacterium tuberculosis; assay: AntiMycobacterium tuberculosis activity 1-week 7H9/glucose/BSA/Tx MIC (uM); conditions: 168 h
[18] = system: Mycobacterium tuberculosis; assay: AntiMycobacterium tuberculosis activity day 21 in 7H9/2.5mM butyrate/pH6/0.1mM nitrite MIC90 (uM); conditions: 504 h

Row | Compound | MIC [1] | MIC [2] | MIC [3] | MIC [4] | MIC90 [5] | CC50 [6] | MIC [7] | MIC [8] | MIC [9] | MIC [10] | MIC [11] | MIC [12] | MIC90 [13] | MIC [14] | MIC90 [15] | MIC90 [16] | MIC [17] | MIC90 [18]
1 | CCCCc1ccc(C(=O)Nc2nccc3ccccc23)nc1 | 0.78 µM (≈ 0.238 µg/mL) | 6.25 µM (≈ 1.91 µg/mL) | 4.7 µM (≈ 1.44 µg/mL) | 6.25 µM (≈ 1.91 µg/mL) | 39.1 µM (≈ 11.9 µg/mL) | 73.8 µM | 6.25 µM (≈ 1.91 µg/mL) | 2.3 µM (≈ 0.702 µg/mL) | 0.78 µM (≈ 0.238 µg/mL) | 1.56 µM (≈ 0.476 µg/mL) | 4.7 µM (≈ 1.44 µg/mL) | 9.4 µM (≈ 2.87 µg/mL) | 3.12 µM (≈ 0.953 µg/mL) | 1.56 µM (≈ 0.476 µg/mL) | 61 µM (≈ 18.6 µg/mL) | 3.12 µM (≈ 0.953 µg/mL) | 6.25 µM (≈ 1.91 µg/mL) | 6.25 µM (≈ 1.91 µg/mL)
2 | COc1cccc(-n2nnnc2S(C)(=O)=O)c1 | 0.78 µM (≈ 0.198 µg/mL) | 12.5 µM (≈ 3.18 µg/mL) | 50 µM (≈ 12.7 µg/mL) | 25 µM (≈ 6.36 µg/mL) | 9.47 µM (≈ 2.41 µg/mL) | 1.7 µM | 25 µM (≈ 6.36 µg/mL) | 12.5 µM (≈ 3.18 µg/mL) | 19 µM (≈ 4.83 µg/mL) | 50 µM (≈ 12.7 µg/mL) | 12.5 µM (≈ 3.18 µg/mL) | 25 µM (≈ 6.36 µg/mL) | 6.25 µM (≈ 1.59 µg/mL) | 1.2 µM (≈ 0.305 µg/mL) | 3.34 µM (≈ 0.849 µg/mL) | 6.25 µM (≈ 1.59 µg/mL) | 9.4 µM (≈ 2.39 µg/mL) | 12.5 µM (≈ 3.18 µg/mL)
3 | COc1cccc(-c2nc3c(N4CCCC4)cccc3n2CC2CCCN2)n1 (configuration not stated) | 4.7 µM (≈ 1.77 µg/mL) | > 50 µM | 50 µM (≈ 18.9 µg/mL) | 9.4 µM (≈ 3.55 µg/mL) | 38.5 µM (≈ 14.5 µg/mL) | 25 µM | 6.25 µM (≈ 2.36 µg/mL) | 25 µM (≈ 9.44 µg/mL) | 37 µM (≈ 14 µg/mL) | 9.4 µM (≈ 3.55 µg/mL) | 9.4 µM (≈ 3.55 µg/mL) | 37 µM (≈ 14 µg/mL) | 12.5 µM (≈ 4.72 µg/mL) | 4.7 µM (≈ 1.77 µg/mL) | 80.6 µM (≈ 30.4 µg/mL) | > 50 µM | 25 µM (≈ 9.44 µg/mL) | 25 µM (≈ 9.44 µg/mL)
4 | Cc1nc2ccccn2c1C(=O)NCc1ccc(Cl)cc1 | 0.05 µM (≈ 0.015 µg/mL) | > 50 µM | 25 µM (≈ 7.49 µg/mL) | > 50 µM | > 100 µM | > 100 µM | 4.7 µM (≈ 1.41 µg/mL) | 2.3 µM (≈ 0.689 µg/mL) | 9.4 µM (≈ 2.82 µg/mL) | 3.13 µM (≈ 0.938 µg/mL) | > 50 µM | > 50 µM | 50 µM (≈ 15 µg/mL) | 0.07 µM (≈ 0.021 µg/mL) | 2 µM (≈ 0.6 µg/mL) | > 50 µM | 25 µM (≈ 7.49 µg/mL) | 50 µM (≈ 15 µg/mL)
5 | Cc1cccc(Cn2ccc(NC(=O)c3ccc4c(c3)OCO4)n2)c1 | 0.2 µM (≈ 0.0671 µg/mL) | 50 µM (≈ 16.8 µg/mL) | 19 µM (≈ 6.37 µg/mL) | 25 µM (≈ 8.38 µg/mL) | 22.6 µM (≈ 7.58 µg/mL) | > 100 µM | 12.5 µM (≈ 4.19 µg/mL) | 9.4 µM (≈ 3.15 µg/mL) | 9.4 µM (≈ 3.15 µg/mL) | 9.4 µM (≈ 3.15 µg/mL) | 9.4 µM (≈ 3.15 µg/mL) | 25 µM (≈ 8.38 µg/mL) | 25 µM (≈ 8.38 µg/mL) | 0.3 µM (≈ 0.101 µg/mL) | 10.4 µM (≈ 3.48 µg/mL) | 50 µM (≈ 16.8 µg/mL) | 12.5 µM (≈ 4.19 µg/mL) | 50 µM (≈ 16.8 µg/mL)
6 | Cc1cc(C)c2cc(C(=O)NC3CCCCCCC3)[nH]c2c1 | < 0.02 µM | > 50 µM | < 0.02 µM | 0.02 µM (≈ 0.00597 µg/mL) | 0.01 µM (≈ 0.00298 µg/mL) | > 100 µM | 0.02 µM (≈ 0.00597 µg/mL) | < 0.02 µM | < 0.02 µM | < 0.02 µM | < 0.02 µM | < 0.02 µM | ≤ 0.04 µM | < 0.02 µM | 0.01 µM (≈ 0.00298 µg/mL) | > 50 µM | < 0.02 µM | ≤ 0.04 µM
7 | O=C(Nc1nc(-c2ccccn2)cs1)c1cncn1-c1ccccc1 | 1.56 µM (≈ 0.542 µg/mL) | > 50 µM | 25 µM (≈ 8.69 µg/mL) | 25 µM (≈ 8.69 µg/mL) | 82.7 µM (≈ 28.7 µg/mL) | 3.8 µM | 19 µM (≈ 6.6 µg/mL) | 9.4 µM (≈ 3.27 µg/mL) | 9.4 µM (≈ 3.27 µg/mL) | 12.5 µM (≈ 4.34 µg/mL) | 19 µM (≈ 6.6 µg/mL) | 25 µM (≈ 8.69 µg/mL) | 6.25 µM (≈ 2.17 µg/mL) | 3.13 µM (≈ 1.09 µg/mL) | 32.5 µM (≈ 11.3 µg/mL) | > 50 µM | 19 µM (≈ 6.6 µg/mL) | 12.5 µM (≈ 4.34 µg/mL)
8 | N#Cc1ccc(-c2ccc(OCC(N)=O)cc2)cc1 | 4.7 µM (≈ 1.19 µg/mL) | > 50 µM | 50 µM (≈ 12.6 µg/mL) | > 50 µM | 23.2 µM (≈ 5.86 µg/mL) | > 100 µM | 50 µM (≈ 12.6 µg/mL) | 12.5 µM (≈ 3.15 µg/mL) | 12.5 µM (≈ 3.15 µg/mL) | ≥ 50 µM | 37 µM (≈ 9.33 µg/mL) | 50 µM (≈ 12.6 µg/mL) | 25 µM (≈ 6.31 µg/mL) | 4.7 µM (≈ 1.19 µg/mL) | 13.7 µM (≈ 3.46 µg/mL) | > 50 µM | 25 µM (≈ 6.31 µg/mL) | 25 µM (≈ 6.31 µg/mL)
9 | CCC(C)NC(=O)c1ccc(NC(=O)C2(c3ccccc3)CCCC2)cc1 (configuration not stated) | 12.5 µM (≈ 4.56 µg/mL) | > 50 µM | > 50 µM | > 50 µM | > 100 µM | > 100 µM | > 50 µM | > 50 µM | > 50 µM | > 50 µM | > 50 µM | > 50 µM | > 50 µM | > 50 µM | > 100 µM | > 50 µM | > 50 µM | > 50 µM
